According to patent publication US20140066381A1, “NOVEL PEPTIDES THAT ARE MODULATORS OF THE PROTEIN TRF2 AND COMPOSITIONS CONTAINING SAME” (ISP INVESTMENTS INC., priority 2011, published 2014):
Ends that are not written are not given here.

Columns and labels:
Type in all cases: cell-based
Human skin biopsies = Human skin biopsies rendered senescent in vitro using methylglyoxal, H&E morphology
Description: Human skin biopsies are rendered artificially senescent in vitro, by means of a treatment with methylglyoxal (MGO). For this, des punch de 6-mm human skin punch biopsies are incubated at the air-liquid interface in a specific culture medium. They are then treated with 5 mM or 10 mM of MGO (Sigma) deposited at the surface of the biopsies and in the culture medium. The biopsies are then treated with: • condition 1: 20 μL of PBS 1×, or • condition 2: 20 μL of peptide SEQ ID NO: 4 at 1%, or • condition 3: 20 μL of peptide SEQ ID NO: 4 at 3%.
The biopsies are fixed and embedded in paraffin, and are then cut into 4-μm sections using a microtome. Hematoxyline/eosine (H&E) immunolabeling is performed on the sections previously cut and their morphology and structure are studied by microscopic observation (under a microscope Nikon Eclipse E600, objective 40×).

TRF2 protein = TRF2 protein expression by Western Blot in human fibroblasts with or without TRF2 siRNA; settings: 72 h
Description: To quantify the efficacy of a peptide compound according to the invention, on the overexpression of TRF2 in a human fibroblast population, the gene coding for TRF2 was “turned off” by using the siRNA technique.
Fibroblast cells are placed in culture in a 6-well plate until 60% confluence. The culture medium is renewed by adding the peptide SEQ ID NO: 2 at 1% under the conditions described below. Then, 100 μL of a mixture previously produced containing, in the end, 10 nM of TRF2 siRNA and the transfection agent are gently added, one drop at a time, and one well at a time. The cell culture plate is incubated at 37° C. and 5% in CO2 for 72 h. The culture medium is renewed every 2 days. Four conditions were established: • condition 1: control without siRNA and without active agent • condition 2: cells transfected with the siRNA, without active agent • condition 3: cells not transfected but treated with the active agent • condition 4: cells transfected with the siRNA and treated with the active agent
The quantification of the TRF2 expression is observed by the classic immunotransfer technique (Western Blot) performed with an anti-TRF2 antibody and according to a classic protocol. […]

vimentin = assay: Vimentin immunofluorescence detection in fibroblasts aged by replicative senescence; settings: human fibroblasts, daily application of peptide at 1% or 3%, more than 17 passages, immunofluorescence at passages 6 and 17
Description: Human fibroblasts are placed in culture in a specific medium and kept in culture for a long treatment (for more than 17 passages), by means of a daily application of the peptide SEQ ID NO: 2 at a concentration of 1% or of 3%. A vimentin immunofluorescence detection experiment is performed on the cells in culture passages 6 and 17. The cells are then washed with PBS, fixed with 3.7% formaldehyde for 10 minutes, permeabilized by means of 0.2% Triton X-100 for 10 minutes (Fisher Chemical) and incubated with 1% BSA (Euromedex) for 15 minutes. An anti-vimentin antibody (Tebu Santa Cruz) is then added and incubated at a dilution of 1/200 for 2 h at room temperature. After washing with PBS, a Donkey anti-mouse IgG antibody, conjugated with a marker ALEXA FLUOR® 488, is added at a dilution of 1/1000 and incubated for one hour at room temperature. Finally, the sections are mounted with Fluoromount G (Electron Microscopy Science) and examined under a microscope (Nikon Eclipse 80i, enlargement 40×).

Substance | damage inflicted on the structures of the biopsies vs control conditions (Human skin biopsies; 6-mm human skin punch biopsies, 5 mM or 10 mM MGO, 20 μL of peptide at 1% or 3%, H&E) | protective effect of the peptide, 3% dose vs 1% dose (Human skin biopsies; human skin biopsies treated with MGO, 20 μL of peptide at 1% vs 3%) | increase in the expression of the TRF2 protein with respect to the control (TRF2 protein; condition 3 vs condition 1: cells not transfected, peptide at 1%, Western Blot) [%] | reduction in TRF2 expression with respect to the control condition (TRF2 protein; condition 4 vs condition 1: cells transfected with 10 nM TRF2 siRNA and treated with peptide at 1%) | vimentin expression in aged fibroblasts, treated vs not treated (vimentin)
Ala-Met-Lys-Lys-Gln-Lys-Trp-NH2 (AMKKQKW-NH2) [SEQ ID NO: 4] | much less significant | dose-dependent | – | – | –
Lys-Lys-Gln-Lys-Trp-NH2 (KKQKW-NH2) [SEQ ID NO: 2] | – | – | 17 | no more than 18% | express less vimentin
